These results are taken from patent publication US9522924B1, “Pyridone derivatives as acid secretion inhibitors and process for preparation thereof” (Emcure Pharmaceuticals Limited, priority 2012, dated 2016).

Assay [1] concerns the target T1, H^+/K^+ ATPase (Oryctolagus cuniculus, UniProt P27112).
T1 construct: using an enzyme isolated from the rabbit or porcine (pig) fundus; from tissue; host or cells: rabbit gastric fundus
The experiment in a line: H+K+-ATPase assay (p-NPP to p-NP), enzyme from rabbit fundus. Type of assay: biochemical. The conditions noted are these: pH 6.0, 30 min pre-incubation at 37° C. The method, then:
(§1) H+K+-ATPase Assay Protocol Description:
(§2) Evaluation of the effects of compounds on the activity of the H^+/K^+ ATPase activity was quantified by measuring the formation of para-nitrophenol (p-NP) from para-nitrophenol phosphate (p-NPP) using an enzyme isolated from the rabbit or porcine (pig) fundus.
(§3) The test compound, reference compound or water (control) are pre-incubated for 30 min at 37° C. with the enzyme (5 μg) in a buffer containing 40 mM Hepes/Tris (pH 6.0), 20 mM KCl, 5 mM MgCl2 and 1 mM ouabain. The enzymatic reaction was then initiated by the addition of 2 mM p-NPP.
(§4) The absorbance was measured immediately at k=405 nm using a microplate reader (EnVision, Perkin Elmer). This measurement at t=0 was also used to verify any compound interference with the spectrophotometric detection at the selected wavelength.
(§5) Thereafter, the mixture was incubated for 15 min at 37° C., after which time the reaction is stopped by addition of 0.5 M NaOH and a second measurement is made at the same wavelength (t=15). The enzyme activity is determined by subtracting the signal measured at t=0 from that measured at t=15. The results are expressed as a percent inhibition of the control enzyme activity.
(§6) The standard inhibitory reference compound is omeprazole,
(§7) Bibliographic reference: Dantzig, H., Minor, P. L. Garrigus, J. L., Fukuda, D. S. and Mynderse, J. S., Studies of the mechanism of action of A80915A, a semi-naphtolquinone natural product, as an inhibitor of gastric (H+/K+)-ATPase, Biochem. Pharmacol. (1991), 42: 2019.
(§8) Assay volume and format: 250 μl in 96-well plate
(§9) Compound addition: [100×] solution in solvent, then [10×] solution in water Maximum tolerable DMSO concentration: 1%

The target in assay [2] is T2, H^+/K^+ ATPase (Sus scrofa, UniProt P19156).
T2 construct: using an enzyme isolated from the rabbit or porcine (pig) fundus; from tissue; host or cells: porcine (pig) gastric fundus
T2 sequence (P19156 2-1034 limits assumed): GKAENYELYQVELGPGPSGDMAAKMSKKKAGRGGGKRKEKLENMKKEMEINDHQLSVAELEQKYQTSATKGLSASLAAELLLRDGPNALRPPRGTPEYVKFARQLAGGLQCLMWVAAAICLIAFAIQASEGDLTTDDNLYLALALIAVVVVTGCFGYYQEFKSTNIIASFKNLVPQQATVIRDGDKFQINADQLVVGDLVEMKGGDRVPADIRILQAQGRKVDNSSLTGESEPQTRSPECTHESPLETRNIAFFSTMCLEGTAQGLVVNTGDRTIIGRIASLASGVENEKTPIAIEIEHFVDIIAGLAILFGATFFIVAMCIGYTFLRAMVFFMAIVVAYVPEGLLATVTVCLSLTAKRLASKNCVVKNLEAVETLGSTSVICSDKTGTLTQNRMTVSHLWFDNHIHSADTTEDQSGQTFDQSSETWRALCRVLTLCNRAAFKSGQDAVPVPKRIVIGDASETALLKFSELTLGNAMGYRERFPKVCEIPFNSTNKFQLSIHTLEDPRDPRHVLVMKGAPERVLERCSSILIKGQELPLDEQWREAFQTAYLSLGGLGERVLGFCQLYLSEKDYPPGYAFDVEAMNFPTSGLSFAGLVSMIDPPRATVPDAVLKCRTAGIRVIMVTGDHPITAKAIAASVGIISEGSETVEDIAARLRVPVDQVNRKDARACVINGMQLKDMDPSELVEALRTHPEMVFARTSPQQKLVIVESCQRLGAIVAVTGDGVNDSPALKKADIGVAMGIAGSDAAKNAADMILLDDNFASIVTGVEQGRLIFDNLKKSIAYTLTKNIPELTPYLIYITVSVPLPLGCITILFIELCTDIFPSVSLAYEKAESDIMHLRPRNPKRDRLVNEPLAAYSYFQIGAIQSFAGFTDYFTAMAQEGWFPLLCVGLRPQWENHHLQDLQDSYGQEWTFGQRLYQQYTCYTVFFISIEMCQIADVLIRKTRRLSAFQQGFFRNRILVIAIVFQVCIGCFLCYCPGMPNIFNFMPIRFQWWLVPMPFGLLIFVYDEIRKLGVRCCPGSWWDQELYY
T2 sequence (P18434 whole entry partner): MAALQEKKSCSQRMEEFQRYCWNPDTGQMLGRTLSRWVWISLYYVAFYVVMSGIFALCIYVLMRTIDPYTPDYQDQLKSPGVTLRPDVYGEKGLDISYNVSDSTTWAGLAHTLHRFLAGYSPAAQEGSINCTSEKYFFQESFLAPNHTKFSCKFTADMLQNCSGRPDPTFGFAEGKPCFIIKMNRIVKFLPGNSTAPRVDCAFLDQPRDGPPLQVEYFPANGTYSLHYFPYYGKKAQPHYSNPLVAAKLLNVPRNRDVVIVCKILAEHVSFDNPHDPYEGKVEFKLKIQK
Nature of the assay: H+K+-ATPase assay (p-NPP to p-NP), enzyme from porcine (pig) fundus. Type of assay: biochemical. The conditions noted are these: for IC50: enzyme from porcine fundus, pH 6.0, 30 min pre-incubation at 37° C. On the procedure: as §1, §2, §3, §4, §5, §6, §7, §8, §9

Assay [3] has as its system Indomethacin-induced gastric ulceration. The experiment in a line: Indomethacin-induced gastric ulceration model in rats. It counts as in vivo, female albino Wistar rats. The conditions noted are these: oral, 1 hour before indomethacin 30 mg/kg p.o.; for ED (effect similar to omeprazole 10 mg/kg): Rattus norvegicus, read-out: Indomethacin-induced ulcer model (dose @ which effect is similar to 10mpk of omeprazole). On the procedure: The anti-ulcer efficacy of various test compounds (I-A-1 to I-A-11, I-B-1 to I-B-3) was assessed in Indomethacin—induced gastric ulceration model in female albino Wistar rats (Bhattacharya S., Banerjee D., Bauri A. K., Chattopadhyay S., Bandyopadhyay S. K. Healing property of the piper betelphenol, allylpyrocatechol against indomethacin-induced stomach ulceration and mechanism of action. World J Gastroenterol., 13(27): 3705-13, 2007; Lee A. Animal models of gastroduodenal ulcer disease. Bailliere's Best Pract. Res. Clinic Gastroenterol., 14(1): 75-96, 2000). The test compounds were administered orally at various doses (0.2, 0.4, 0.8 and 1.6 mg/kg) in comparison to Omeprazole (10 mg/kg) as standard comparator.
Experiments were conducted in overnight fasted healthy female albino Wistar rats maintained at controlled environmental conditions of temperature and humidity with water given ad libitum. Non-steroidal anti-inflammatory drug (NSAID), Indomethacin (30 mg/kg, p.o.) was used to induce gastric ulcer (treatment groups) with a comparative group without indomethacin treatment (negative group). Indomethacin was administered to treatment groups 1 hour after oral treatment with Vehicle (1% CMC), various doses of test compounds (EPPIs) and Omeprazole (10 mg/kg). After 4-6 hours after indomethacin administration, the animals were sacrificed by cervical dislocation and their stomach was dissected out. Various parameters like macroscopic ulcer index, gastric mucus content and gastric acid pH measurements were undertaken. The rat stomachs were cut opened along the greater curvature for macroscopic determination of ulcer index.

Assay [4] has as its target T2, H^+/K^+ ATPase. The conditions noted are these: literature value (Keeling et al., Biochem Pharmacol 1985); read-out: IC50 (Pig-Porcine); cited from earlier work.
Assay [5] concerns the target T1, H^+/K^+ ATPase. The conditions noted are these: literature value (Scott and Sundell, Eur. J Pharmacol 1985); read-out: IC50 (Rabbit); cited from earlier work.

The structures appear in SMILES notation. Read-outs that look alike come from different tables or passages of the source.

T1 sequence (P27112 2-1035 limits assumed): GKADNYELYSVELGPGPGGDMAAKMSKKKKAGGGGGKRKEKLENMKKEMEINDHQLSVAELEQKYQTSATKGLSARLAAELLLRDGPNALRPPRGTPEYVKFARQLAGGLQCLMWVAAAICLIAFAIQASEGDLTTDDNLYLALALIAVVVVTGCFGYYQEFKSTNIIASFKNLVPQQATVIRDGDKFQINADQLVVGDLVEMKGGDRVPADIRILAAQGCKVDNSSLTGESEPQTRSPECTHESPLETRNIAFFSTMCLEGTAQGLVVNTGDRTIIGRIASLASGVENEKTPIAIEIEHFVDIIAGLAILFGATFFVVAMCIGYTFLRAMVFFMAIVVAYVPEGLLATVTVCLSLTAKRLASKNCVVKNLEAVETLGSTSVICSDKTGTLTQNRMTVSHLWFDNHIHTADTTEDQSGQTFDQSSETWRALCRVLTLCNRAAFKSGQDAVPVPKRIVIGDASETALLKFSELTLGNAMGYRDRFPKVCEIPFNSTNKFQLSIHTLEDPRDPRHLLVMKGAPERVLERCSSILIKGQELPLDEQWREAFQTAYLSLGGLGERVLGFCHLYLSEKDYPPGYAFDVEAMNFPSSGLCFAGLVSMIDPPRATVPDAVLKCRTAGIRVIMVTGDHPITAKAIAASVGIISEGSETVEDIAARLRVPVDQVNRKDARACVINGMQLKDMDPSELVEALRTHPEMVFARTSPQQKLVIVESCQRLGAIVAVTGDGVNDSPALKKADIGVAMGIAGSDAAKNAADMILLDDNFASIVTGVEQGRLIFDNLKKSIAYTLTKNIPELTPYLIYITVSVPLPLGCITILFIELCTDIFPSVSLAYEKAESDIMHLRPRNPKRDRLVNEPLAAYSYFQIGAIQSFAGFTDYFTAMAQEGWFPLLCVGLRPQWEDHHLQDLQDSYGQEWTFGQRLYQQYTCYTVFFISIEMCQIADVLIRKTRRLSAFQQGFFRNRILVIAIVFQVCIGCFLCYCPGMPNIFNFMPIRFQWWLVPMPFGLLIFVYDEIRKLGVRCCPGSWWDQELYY
T1 sequence (P18597 whole entry partner): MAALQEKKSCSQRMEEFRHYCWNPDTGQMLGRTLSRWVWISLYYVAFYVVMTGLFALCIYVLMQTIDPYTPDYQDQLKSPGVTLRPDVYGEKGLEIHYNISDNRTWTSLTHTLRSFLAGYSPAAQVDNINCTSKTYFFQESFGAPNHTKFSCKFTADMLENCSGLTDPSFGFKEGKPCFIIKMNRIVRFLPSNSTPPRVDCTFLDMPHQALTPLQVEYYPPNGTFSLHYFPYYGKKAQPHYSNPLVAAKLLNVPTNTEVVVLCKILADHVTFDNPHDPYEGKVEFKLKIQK

One may read the IC50 as the midpoint of a concentration-inhibition curve. On to `O=c1ccn(-c2nc3ccccc3[nH]2)c(C[S+]([O-])[S+]([O-])Cc2cc(=O)ccn2-c2nc3ccccc3[nH]2)c1` (centres unmarked) [I-A-1, 2-((2-((1-(1H-benzo[d]imidazol-2-yl)-1,4-dihydro-4-oxopyridin-2-yl)methyl)disulfinyl)methyl)-1-(1H-benzo[d]imidazol-2-yl)pyridin-4(1H)-one], for which the values for the IC50 on H^+/K^+ ATPase [1] and against H^+/K^+ ATPase [2] were 1 µM and 1.8 µM, respectively. Besides, in assay [3], the “Indomethacin-induced ulcer model (dose @ which effect is similar to 10mpk of omeprazole)” value is 1.6 mg/kg.
As for `Cc1cn(-c2nc3ccccc3[nH]2)c(CSSCc2c(C)c(=O)c(C)cn2-c2nc3ccccc3[nH]2)c(C)c1=O` [I-A-2], the IC50 against H^+/K^+ ATPase [1] amounted to 1 µM; on H^+/K^+ ATPase [2] it was 1.3 µM. Moreover, the ED (effect similar to omeprazole 10 mg/kg) in assay [3] came to 1.6 mg/kg.
Taken in the same sequence, the figures for `COc1c(CSSCc2c(OC)c(=O)ccn2-c2nc3ccccc3[nH]2)n(-c2nc3ccccc3[nH]2)ccc1=O` [I-A-3] were 1.1 µM, 2 µM and 1.6 mg/kg.
Regarding `Cc1ccc2[nH]c(-n3cc(C)c(=O)c(C)c3CSSCc3c(C)c(=O)c(C)cn3-c3nc4cc(C)ccc4[nH]3)nc2c1` [I-A-4], the IC50 against H^+/K^+ ATPase [1] came out at 1.6 µM; on H^+/K^+ ATPase [2], 2.9 µM.
On to `COc1c(CSSCc2c(OC)c(=O)ccn2-c2nc3cc(C)ccc3[nH]2)n(-c2nc3cc(C)ccc3[nH]2)ccc1=O` [I-A-5], for which the figures for the IC50 against H^+/K^+ ATPase [1] and against H^+/K^+ ATPase [2] were 1.3 µM and 2.3 µM, respectively. Moreover, the ED (effect similar to omeprazole 10 mg/kg) in assay [3] amounted to 1.6 mg/kg.
As for `COc1ccc2[nH]c(-n3cc(C)c(=O)c(C)c3CSSCc3c(C)c(=O)c(C)cn3-c3nc4cc(OC)ccc4[nH]3)nc2c1` [I-A-6], the IC50 against H^+/K^+ ATPase [1] turned out to be 1.3 µM; at H^+/K^+ ATPase [2] it was 4.1 µM.
For the compound `COc1ccc2[nH]c(-n3ccc(=O)c(OC)c3CSSCc3c(OC)c(=O)ccn3-c3nc4cc(OC)ccc4[nH]3)nc2c1` [I-A-7, 2-((2-((1,4-dihydro-3-methoxy-1-(5-methoxy-1H-benzo[d]imidazol-2-yl)-4-oxopyridin-2-yl)methyl)disulfinyl)methyl)-3-methoxy-1-(5-methoxy-1H-benzo[d]imidazol-2-yl)pyridin-4(1H)-one], the IC50 against H^+/K^+ ATPase [1] came to 1.2 µM; at H^+/K^+ ATPase [2] it was 4.7 µM. Further, the ED (effect similar to omeprazole 10 mg/kg) in assay [3] came to 1.6 mg/kg.
In the same order, the values of `Cc1cn(-c2nc3cc(F)ccc3[nH]2)c(CSSCc2c(C)c(=O)c(C)cn2-c2nc3cc(F)ccc3[nH]2)c(C)c1=O` [I-A-8] are 1.2 µM, 1.3 µM and 1.6 mg/kg.
In the same order, the values of `COc1c(CSSCc2c(OC)c(=O)ccn2-c2nc3cc(C(F)(F)F)ccc3[nH]2)n(-c2nc3cc(C(F)(F)F)ccc3[nH]2)ccc1=O` [I-A-9] are 1.1 µM, 1.7 µM and 1.6 mg/kg.
Taken in the same sequence, the figures for `COc1c(CSSCc2c(OC)c(=O)ccn2-c2nc3cc(OC(F)F)ccc3[nH]2)n(-c2nc3cc(OC(F)F)ccc3[nH]2)ccc1=O` [I-A-11] were 1.5 µM, 3.3 µM and 1.6 mg/kg.
As for `Cc1cn(-c2nc3ncccc3[nH]2)c(CSSCc2c(C)c(=O)c(C)cn2-c2nc3ncccc3[nH]2)c(C)c1=O` [I-B-1, 2-((2-((1,4-dihydro-1-(1H-imidazo[4,5-b]pyridin-2-yl)-3,5-dimethyl-4-oxopyridin-2-yl)methyl)disulfinyl)methyl)-1-(1H-imidazo[4,5-b]pyridin-2-yl)-3,5-dimethylpyridin-4(1H)-one], the IC50 amounted to 2.8 µM on H^+/K^+ ATPase [1] and 14 µM on H^+/K^+ ATPase [2]. The ED (effect similar to omeprazole 10 mg/kg) in assay [3] came to 1.6 mg/kg.
Taken in the same sequence, the figures for `COc1ccc2[nH]c(-n3ccc(=O)c(OC)c3CSSCc3c(OC)c(=O)ccn3-c3nc4nc(OC)ccc4[nH]3)nc2n1` [I-B-2] were 2 µM, 8.4 µM and 1.6 mg/kg.
`COc1ccc2[nH]c(-n3cc(C)c(=O)c(C)c3C[S+]([O-])[S+]([O-])Cc3c(C)c(=O)c(C)cn3-c3nc4nc(OC)ccc4[nH]3)nc2n1` (centres unmarked) [I-B-3, 2-((2-((1,4-dihydro-1-(5-methoxy-1H-imidazo[4,5-b]pyridin-2-yl)-3,5-dimethyl-4-oxopyridin-2-yl)methyl)disulfinyl)methyl)-1-(5-methoxy-1H-imidazo[4,5-b]pyridin-2-yl)-3,5-dimethylpyridin-4(1H)-one]: the “percent inhibition of the control enzyme activity (printed in IC50 (Pig-Porcine) column)” value at H^+/K^+ ATPase [2] (@ 3-30 uM) was found to be 45% @ 3-30 uM. In addition, in assay [3], the “Indomethacin-induced ulcer model (dose @ which effect is similar to 10mpk of omeprazole)” value amounted to 1.6 mg/kg.
Turning to `COc1ccc2[nH]c([S+]([O-])Cc3ncc(C)c(OC)c3C)nc2c1` (centres unmarked) [Omeprazole, omeprazole], the values for the IC50 on H^+/K^+ ATPase [4] and on H^+/K^+ ATPase [5] were 3.9 µM and 4 µM, respectively.
